# Test results as given in the supplement of paper PMC10307832.
# Key:
# Assay in all cases: relative viability (nuclei count vs DMSO), 5 days (fraction); higher = more cells survive
# Adavosertib + Pemetrexed = compound: C=CCn1c(=O)c2cnc(Nc3ccc(N4CCN(C)CC4)cc3)nc2n1-c1cccc(C(C)(C)O)n1 [Adavosertib] + Nc1nc2[nH]cc(CCc3ccc(C(=O)N[C@@H](CCC(=O)O)C(=O)O)cc3)c2c(=O)[nH]1 [Pemetrexed] (partner 0.2 µM)
# How it was run: (§1)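 Lung cancer cell lines were seeded in 1536-well plates and dosed by pin tool the next day, with either a single drug or a fixed anchor-drug dose combined with five library-drug doses (not always all listed) spaced in √10 steps. Five days later, one step fixed the cells and stained their nuclei (final 0.05% Triton X-100, 1% formaldehyde, 1 ug/ml Hoechst), and nuclei were counted on 4× images. Relative viability is the nuclei count in treated wells divided by the count in vehicle wells, and each value is the median of duplicate plates.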
# Nelarabine + Crizotinib = compound: COc1nc(N)nc2c1ncn2[C@@H]1O[C@H](CO)[C@@H](O)[C@@H]1O [Nelarabine] + C[C@@H](Oc1cc(-c2cnn(C3CCNCC3)c2)cnc1N)c1c(Cl)ccc(F)c1Cl [Crizotinib] (partner 1 µM)
# How it was run: as §1
# Adavosertib + Phenformin = compound: C=CCn1c(=O)c2cnc(Nc3ccc(N4CCN(C)CC4)cc3)nc2n1-c1cccc(C(C)(C)O)n1 [Adavosertib] + N=C(N)NC(=N)NCCc1ccccc1 [Phenformin] (partner 250 µM)
# How it was run: as §1
# Nelarabine + AZD7762 = compound: COc1nc(N)nc2c1ncn2[C@@H]1O[C@H](CO)[C@@H](O)[C@@H]1O [Nelarabine] + NC(=O)Nc1cc(-c2cccc(F)c2)sc1C(=O)N[C@H]1CCCNC1 [AZD7762] (partner 0.2 µM)
# How it was run: as §1
cell line,measurement,setting,value
EMC-BAC-2,relative viability,Adavosertib + Pemetrexed; first compound 0.03162 µM,0.399
same,relative viability,Adavosertib + Pemetrexed; first compound 0.1 µM,0.357
same,relative viability,Adavosertib + Pemetrexed; first compound 0.3162 µM,0.334
same,relative viability,Nelarabine + Crizotinib; first compound 0.01 µM,0.734
same,relative viability,Nelarabine + Crizotinib; first compound 0.03162 µM,0.624
same,relative viability,Nelarabine + Crizotinib; first compound 0.1 µM,0.782
same,relative viability,Nelarabine + Crizotinib; first compound 0.3162 µM,0.843
same,relative viability,Nelarabine + Crizotinib; first compound 1 µM,0.683
same,relative viability,Adavosertib + Phenformin; first compound 0.01 µM,0.547
same,relative viability,Adavosertib + Phenformin; first compound 0.03162 µM,0.557
same,relative viability,Adavosertib + Phenformin; first compound 0.1 µM,0.519
same,relative viability,Adavosertib + Phenformin; first compound 0.3162 µM,0.479
same,relative viability,Nelarabine + AZD7762; first compound 0.01 µM,1.2
same,relative viability,Nelarabine + AZD7762; first compound 0.03162 µM,1.1
same,relative viability,Nelarabine + AZD7762; first compound 0.1 µM,1.18
same,relative viability,Nelarabine + AZD7762; first compound 0.3162 µM,1.22
same,relative viability,Nelarabine + AZD7762; first compound 1 µM,1.17
